Values after ≈ are worked out from the molar mass of the structure shown. Like-named read-outs stand apart in the source and are kept apart here.
Assays:
Assay type in all cases: cell-based
[1] = system: Mycobacterium bovis BCG strain; experiment: microbe, parasite or virus in culture; conditions: for MIC: Mycobacterium tuberculosis variant bovis BCG, BCG, 168 h, read-out: MIC (μg/mL) Mycobacterium bovis BCG, BCG strain, 7H9 medium, 37° C., 168 hours, resazurin; for inhibitory effect on BCG strain (summary of Table 2): in words
[2] = system: Mycobacterium tuberculosis H37Ra strain; experiment: microbe, parasite or virus in culture; conditions: for MIC: Mycobacterium tuberculosis, H37RA, 168 h, read-out: MIC (μg/mL) Mycobacterium tuberculosis H37Ra
[3] = system: Mycobacterium smegmatis strain (mc2155); experiment: Resazurin microplate MIC on Mycobacterium smegmatis; conditions: for MIC: Mycolicibacterium smegmatis, MC2155, 48 h
[4] = mc2155, 7H9 medium, 37° C., 48 hours, resazurin, read-out: MIC (μg/mL) Mycobacterium smegmatis

Cc1c(CNC(=O)NC23CC4CC(CC(C4)C2)C3)nn(-c2ccc(Cl)cc2Cl)c1-c1ccc(Cl)cc1 [Compound 10, 1-((3s,5s,7s)-adamantan-1-yl)-3-((5-(4-chlorophenyl)-1-(2,4-dichlorophenyl)-4-methyl-1H-pyrazol-3-yl)methyl)urea]
MIC [1]: > 171 µg/mL
MIC [2]: > 171 µg/mL
MIC [3, 4]: 171 µg/mL (≈ 314 µM)

Cc1c(CNC(=O)NCC23CC4CC(CC(C4)C2)C3)nn(-c2ccc(Cl)cc2Cl)c1-c1ccc(Cl)cc1 [Compound 11, 1-(((3r,5r,7r)-adamantan-1-yl)-methyl)-3-((5-(4-chlorophenyl)-1-(2,4-dichlorophenyl)-4-methyl-1H-pyrazol-3-yl)-methyl)urea]
MIC [1]: > 134 µg/mL
MIC [2]: 33.5 µg/mL (≈ 60.1 µM)
MIC [3, 4]: 134 µg/mL (≈ 240 µM)

Cc1c(CNC(=O)NCCC23CC4CC(CC(C4)C2)C3)nn(-c2ccc(Cl)cc2Cl)c1-c1ccc(Cl)cc1 [Compound 12, 1-(2-((3r,5r,7r)-adamantan-1-yl)ethyl)-3-((5-(4-chloro-phenyl)-1-(2,4-dichlorophenyl)-4-methyl-1H-pyrazol-3-yl)-methyl)urea]
MIC [1]: > 122 µg/mL
MIC [2]: 122 µg/mL (≈ 213 µM)
MIC [3, 4]: 15.2 µg/mL (≈ 26.6 µM)

Cc1c(C(=O)NCCNC2C3CC4CC(C3)CC2C4)nn(-c2ccc(Cl)cc2Cl)c1-c1ccc(Cl)cc1 (stereo not drawn) [Compound 17, N-(2-(((1r,3r,5r,7r)-adamantan-2-yl)amino)ethyl)-5-(4-chloro-phenyl)-1-(2,4-dichlorophenyl)-4-methyl-1H-pyrazole-3-carboxamide]
MIC [1]: 5.95 µg/mL (≈ 10.7 µM)
inhibitory effect on BCG strain (summary of Table 2) [1]: good inhibitory effects
inhibitory effect on H37Ra strain (summary of Table 2) [2]: good inhibitory effects
MIC [2]: 5.95 µg/mL (≈ 10.7 µM)
inhibitory effect on smegmatis strain (summary of Table 2) [3]: good inhibitory effects
MIC [3, 4]: 11.9 µg/mL (≈ 21.3 µM)

Cc1c(C(=O)NCCCNC2C3CC4CC(C3)CC2C4)nn(-c2ccc(Cl)cc2Cl)c1-c1ccc(Cl)cc1 (stereo not drawn) [Compound 18, N-(3-(((1r,3r,5r,7r)-adamantan-2-yl)amino)propyl)-5-(4-chlorophenyl)-1-(2,4-dichlorophenyl)-4-methyl-1H-pyrazole-3-carboxamide]
MIC [1]: 6.1 µg/mL (≈ 10.7 µM)
inhibitory effect on BCG strain (summary of Table 2) [1]: good inhibitory effects
inhibitory effect on H37Ra strain (summary of Table 2) [2]: good inhibitory effects
MIC [2]: 6.1 µg/mL (≈ 10.7 µM)
inhibitory effect on smegmatis strain (summary of Table 2) [3]: good inhibitory effects
MIC [3, 4]: 24.4 µg/mL (≈ 42.6 µM)

Cc1c(C(=O)NCCCCNC2C3CC4CC(C3)CC2C4)nn(-c2ccc(Cl)cc2Cl)c1-c1ccc(Cl)cc1 (stereo not drawn) [Compound 19, N-(4-(((1r,3r,5r,7r)-adamantan-2-yl)amino)butyl)-5-(4-chlorophenyl)-1-(2,4-dichlorophenyl)-4-methyl-1H-pyrazole-3-carboxamide]
MIC [1]: 6.71 µg/mL (≈ 11.5 µM)
inhibitory effect on BCG strain (summary of Table 2) [1]: good inhibitory effects
inhibitory effect on H37Ra strain (summary of Table 2) [2]: good inhibitory effects
MIC [2]: 6.71 µg/mL (≈ 11.5 µM)
inhibitory effect on smegmatis strain (summary of Table 2) [3]: good inhibitory effects
MIC [3, 4]: 13.4 µg/mL (≈ 22.9 µM)

Cc1c(C(=O)NCCNC23CC4CC(C)(CC(C)(C4)C2)C3)nn(-c2ccc(Cl)cc2Cl)c1-c1ccc(Cl)cc1 [Compound 23, (5-(4-chlorophenyl)-1-(2,4-dichlorophenyl)-N-(2-(((1r,3R,5S,7r)-3,5-dimethyl-adamantan-1-yl)amino)ethyl)-4-methyl-1H-pyrazole-3-carboxamide]
MIC [1]: 3.66 µg/mL (≈ 6.25 µM)
inhibitory effect on BCG strain (summary of Table 2) [1]: good inhibitory effects
inhibitory effect on H37Ra strain (summary of Table 2) [2]: good inhibitory effects
MIC [2]: 1.83 µg/mL (≈ 3.12 µM)
inhibitory effect on smegmatis strain (summary of Table 2) [3]: good inhibitory effects
MIC [3, 4]: 7.32 µg/mL (≈ 12.5 µM)

Cc1c(C(=O)N(C)CCNC2C3CC4CC(C3)CC2C4)nn(-c2ccc(Cl)cc2Cl)c1-c1ccc(Cl)cc1 (stereo not drawn) [Compound 74, N-(2-(((1r,3r,5r,7r)-adamantan-2-yl)amino)ethyl)-5-(4-chlorophenyl)-1-(2,4-dichlorophenyl)-N,4-dimethyl-1H-pyrazole-3-carboxamide]
MIC [1]: 3.35 µg/mL (≈ 5.86 µM)
inhibitory effect on BCG strain (summary of Table 2) [1]: good inhibitory effects
inhibitory effect on H37Ra strain (summary of Table 2) [2]: good inhibitory effects
MIC [2]: 3.35 µg/mL (≈ 5.86 µM)
inhibitory effect on smegmatis strain (summary of Table 2) [3]: good inhibitory effects
MIC [3, 4]: 13.4 µg/mL (≈ 23.4 µM)

Cc1c(C(=O)NCCNC2C3CC4CC(C3)CC2C4)nn(-c2ccc(F)cc2F)c1-c1ccc(Cl)cc1 (stereo not drawn) [Compound 76, N-(2-(((1r,3r,5r,7r)-adamantan-2-yl)amino)ethyl)-5-(4-chloro-phenyl)-1-(2,4-difluorophenyl)-4-methyl-1H-pyrazole-3-carboxamide]
MIC [1]: 3.66 µg/mL (≈ 6.97 µM)
inhibitory effect on BCG strain (summary of Table 2) [1]: good inhibitory effects
inhibitory effect on H37Ra strain (summary of Table 2) [2]: good inhibitory effects
MIC [2]: 1.83 µg/mL (≈ 3.49 µM)
inhibitory effect on smegmatis strain (summary of Table 2) [3]: good inhibitory effects
MIC [3, 4]: 7.32 µg/mL (≈ 13.9 µM)

Cc1ccc(-n2nc(C(=O)NCCNC3C4CC5CC(C4)CC3C5)c(C)c2-c2ccc(Cl)cc2)c(C)c1 (stereo not drawn) [Compound 77, N-(2-(((1r,3r,5r,7r)-adamantan-2-yl)amino)ethyl-5-(4-chloro-phenyl)-1-(2,4-dimethylphenyl)-4-methyl-1H-pyrazole-3-carboxamide]
MIC [1]: 5.18 µg/mL (≈ 10 µM)
inhibitory effect on BCG strain (summary of Table 2) [1]: good inhibitory effects
inhibitory effect on H37Ra strain (summary of Table 2) [2]: good inhibitory effects
MIC [2]: 2.59 µg/mL (≈ 5.01 µM)
inhibitory effect on smegmatis strain (summary of Table 2) [3]: good inhibitory effects
MIC [3, 4]: 10.4 µg/mL (≈ 20 µM)

Cc1c(C(=O)NCCNC23CC4CC(CC(C4)C2)C3)nn(-c2ccc(Cl)cc2Cl)c1-c1ccc(Cl)cc1 [Compound 163, N-(2-(((3s,5s,7s)-adamantan-1-yl)amino)ethyl)-5-(4-chloro-phenyl)-1-(2,4-dichloro-phenyl)-4-methyl-1H-pyrazole-3-carboxamide]
MIC [1]: 3.66 µg/mL (≈ 6.56 µM)
inhibitory effect on BCG strain (summary of Table 2) [1]: good inhibitory effects
inhibitory effect on H37Ra strain (summary of Table 2) [2]: good inhibitory effects
MIC [2]: 3.66 µg/mL (≈ 6.56 µM)
inhibitory effect on smegmatis strain (summary of Table 2) [3]: good inhibitory effects
MIC [3, 4]: 14.6 µg/mL (≈ 26.2 µM)

Cc1c(CNCCCNC2C3CC4CC(C3)CC2C4)nn(-c2ccc(Cl)cc2Cl)c1-c1ccc(Cl)cc1 (stereo not drawn) [Compound 164, N1-((1r,3r,5r,7r)-adamantan-2-yl)-N3-((5-(4-chloro-phenyl)-1-(2,4-dichloro-phenyl)-4-methyl-1H-pyrazol-3-yl)methyl)propane-1,3-diamine]
MIC [1]: 3.24 µg/mL (≈ 5.81 µM)
MIC [2]: 3.24 µg/mL (≈ 5.81 µM)
MIC [3, 4]: > 207 µg/mL

Cc1c(CN(C)CCNC2C3CC4CC(C3)CC2C4)nn(-c2ccc(Cl)cc2Cl)c1-c1ccc(Cl)cc1 (stereo not drawn) [Compound 165, N1-((1r,3r,5r,7r)-adamantan-2-yl)-N2-((5-(4-chloro-phenyl)-1-(2,4-dichloro-phenyl)-4-methyl-1H-pyrazol-3-yl)methyl)-N2-methylethane-1,2-diamine]
MIC [1]: 3.62 µg/mL (≈ 6.49 µM)
MIC [2]: 1.81 µg/mL (≈ 3.24 µM)
MIC [3, 4]: 57.9 µg/mL (≈ 104 µM)

Cc1c(CNCCNC2C3CC4CC(C3)CC2C4)nn(-c2ccc(Cl)cc2Cl)c1-c1ccc(Cl)cc1 (stereo not drawn) [Compound 166, N1-((1r,3r,5r,7r)-adamantan-2-yl)-N2-((5-(4-chlorophenyl)-1-(2,4-dichlorophenyl)-4-methyl-1H-pyrazol-3-yl)-methyl)ethane-1,2-diamine]
MIC [1]: 7.62 µg/mL (≈ 14 µM)
MIC [2]: 3.81 µg/mL (≈ 7 µM)
MIC [3, 4]: 7.62 µg/mL (≈ 14 µM)

Cc1c(CNCCCCNC2C3CC4CC(C3)CC2C4)nn(-c2ccc(Cl)cc2Cl)c1-c1ccc(Cl)cc1 (stereo not drawn) [Compound 167, N1-((1r,3r,5r,7r)-adamantan-2-yl)-N4-((5-(4-chlorophenyl)-1-(2,4-dichlorophenyl)-4-methyl-1H-pyrazol-3-yl)-methyl)butane-1,4-diamine]
MIC [1]: 1.05 µg/mL (≈ 1.84 µM)
MIC [2]: 2.1 µg/mL (≈ 3.67 µM)
MIC [3, 4]: 2.1 µg/mL (≈ 3.67 µM)

Cc1c(CNS(=O)(=O)CCNC23CC4CC(C)(CC(C)(C4)C2)C3)nn(-c2ccc(Cl)cc2Cl)c1-c1ccc(Cl)cc1 [Compound 168, N-((5-(4-chlorophenyl)-1-(2,4-dichlorophenyl)-4-methyl-1H-pyrazol-3-yl)methyl)-2-(((1r,3R,5S,7r)-3,5-dimethyl-adamantan-1-yl)amino)ethane-1-sulfonamide]
MIC [1]: 21.3 µg/mL (≈ 33.5 µM)
MIC [2]: 10.7 µg/mL (≈ 16.8 µM)
MIC [3, 4]: 21.3 µg/mL (≈ 33.5 µM)

Cc1c(CNC(=O)CNC23CC4CC(C)(CC(C)(C4)C2)C3)nn(-c2ccc(Cl)cc2Cl)c1-c1ccc(Cl)cc1 [Compound 169, N-((5-(4-chlorophenyl)-1-(2,4-dichlorophenyl)-4-methyl-1H-pyrazol-3-yl)methyl)-2-(((1r,3R,5S,7r)-3,5-dimethyl-adamantan-1-yl)amino)-acetamide]
MIC [1]: 1.91 µg/mL (≈ 3.26 µM)
MIC [2]: 1.91 µg/mL (≈ 3.26 µM)
MIC [3, 4]: 0.95 µg/mL (≈ 1.62 µM)

Cc1c(C(=O)N2CCN(C(=O)C34CC5CC(CC(C5)C3)C4)CC2)nn(-c2ccc(Cl)cc2Cl)c1-c1ccc(Cl)cc1 [Compound 170, ((3r,5r,7r)-adamantan-1-yl)(4-(5-(4-chlorophenyl)-1-(2,4-dichlorophenyl)-4-methyl-1H-pyrazole-3-carbonyl)piperazin-1-yl)methanone]
MIC [1]: > 293 µg/mL
MIC [2]: > 293 µg/mL
MIC [3, 4]: > 293 µg/mL

Cc1c(C(=O)OC2CC3CCC2(C)C3(C)C)nn(-c2ccc(Cl)cc2Cl)c1-c1ccc(Cl)cc1 (stereo not drawn) [Compound 171, 1,7,7-trimethylbicyclo[2.2.1]-heptan-2-yl 5-(4-chlorophenyl)-1-(2,4-dichlorophenyl)-4-methyl-1H-pyrazole-3-carbox-ylate]
MIC [1]: > 200 µg/mL
MIC [2]: > 200 µg/mL
MIC [3, 4]: 200 µg/mL (≈ 386 µM)

Cc1c(C(=O)O[C@H]2C[C@@H]3CC[C@@]2(C)C3(C)C)nn(-c2ccc(Cl)cc2Cl)c1-c1ccc(Cl)cc1 [Compound 172, (1S,2S,4S)-1,7,7-trimethyl-bicyclo[2.2.1]heptan-2-yl 5-(4-chlorophenyl)-1-(2,4-dichlorophenyl)-4-methyl-1H-pyrazole-3-carboxylate]
MIC [1]: > 338 µg/mL
MIC [2]: 84.5 µg/mL (≈ 163 µM)
MIC ([3]; read-out: MIC (μg/mL) Mycobacterium smegmatis, mc2155, 7H9 medium, 37° C., 48 hours, resazurin): > 338 µg/mL

— patent publication US11655238B2 (priority 2018, dated 2023)
